Where a name gives a salt, the structure may show the parent alone. Read-outs that look alike come from different tables or passages of the source.
How the values were obtained:
[1] = ref [12]; cited from earlier work
[2] = target: rat α4β2 nAChR (Rattus norvegicus, UniProt P09483+P12390); format: binding; conditions: versus the N-H analogue
[3] = target: α4β2* endogenous receptors prepared from rat forebrain (Rattus norvegicus, UniProt P09483+P12390); experiment: [3H]epibatidine binding competition, α4β2*; conditions: versus the N-H analogue
[4] = system: high sensitivity (HS) α4β2-nAChR; conditions: oocytes expressing human nAChRs; ref [15], [16]; cited from earlier work
[5] = target: α7 subtype; conditions: read-out: Ki α7 subtype; ref [15], [16]; cited from earlier work
[6] = system: mice; experiment: SmartCube behavioral platform; format: in vivo, mouse; conditions: 15 min preinjection; for SmartCube behavioral signature, extent of effect: 5 and 10 mg/kg i.p.; for SmartCube behavioral signature, 10 mg/kg compared to 5 mg/kg: i.p.
[7] = target: T1, HS α4β2-nAChR (Homo sapiens, UniProt P17787+P43681); experiment: 86Rb+ ion efflux assay, efficacy at HS α4β2; format: cell-based; conditions: relative to full agonist carbamylcholine; ± SEM
[8] = system: β2-nAChRs; experiment: [3H]epibatidine binding competition, β2-nAChRs overall; design: species or system rat; conditions: versus parent compound 8
[9] = system: mice; experiment: Mouse forced swim test; format: in vivo; conditions: BALB/cJ mice, 6-min test, P < 0.05
[10] = target: human α4β2-nAChRs (mixture of HS and LS) (Homo sapiens, UniProt P17787+P43681); conditions: SH-EP1-hα4β2 cells; ref [8], [9]; cited from earlier work
[11] = target: LS α4β2-nAChR (Homo sapiens, UniProt P17787+P43681); conditions: relative to carbamylcholine; ref [8], [9]; cited from earlier work
[12] = target: T1, HS α4β2-nAChR; conditions: relative to carbamylcholine; ref [8], [9]; cited from earlier work

Compound: Clc1ccc(OC[C@H]2CCN2)cn1 [Compound 5]
- stability in the presence of HCl or TFA following exposure to water [1]: dimerize to compound 6

Compound: COCC[C@H]1C[C@@H]1c1cncc(N2CCCN(C)CC2)c1 [Compound 22, 1-[5-[(1S,2R)-2-(2-methoxyethyl)cyclopropyl]pyridin-3-yl]-4-methyl-1,4-diazepane trifluoroacetate]
- drop in binding affinity at α4β2 caused by N-methyl group [2]: more than 10 fold
- drop in binding affinity at α4β2* caused by N-methyl group [3]: more than 10 fold

Compound: c1cncc(N2CCCNCC2)c1 [Compound 7, 1-(pyridin-3-yl)-1,4-diazepane]
- efficacy relative to acetylcholine at HS α4β2-nAChR [4]: 41%
- Ki [5]: 136 nM

Compound: COCC[C@@H]1C[C@H]1c1cncc(N2CCCNCC2)c1 [Compound 25, 1-[5-[(1R,2S)-2-(2-methoxyethyl)cyclopropyl]pyridin-3-yl]-1,4-diazepane]
- SmartCube behavioral signature, extent of effect [6]: most prominent effects
- SmartCube behavioral signature, 10 mg/kg compared to 5 mg/kg [6]: marked increase
- Agonism HS-α4β2 Efficacy [7]: 58–81%

Compound: COCC[C@H]1C[C@@H]1c1cncc(N2C[C@@H]3C[C@H]2CN3)c1 [Compound 23, (1S,4S)-2-[5-[(1S,2R)-2-(2-methoxyethyl)cyclopropyl]pyridin-3-yl]-2,5-diazabicyclo[2.2.1]heptane]
- decline in binding affinities at β2-nAChRs [8]: ≥ 6 fold

Compound: COCC[C@H]1C[C@@H]1c1cncc(N2CCCNCC2)c1 [Compound 21, 1-[5-[(1S,2R)-2-(2-Methoxyethyl)cyclopropyl]pyridin-3-yl]-1,4-diazepane trifluoroacetate]
- SmartCube behavioral signature, extent of effect [6]: most prominent effects
- SmartCube behavioral signature, 10 mg/kg compared to 5 mg/kg [6]: fairly similar behavioral signature
- Agonism HS-α4β2 Efficacy [7]: 58–81%
- total immobility time compared to control group (water) ([9]; acute PO 1 mg/kg): significantly decreased
- total immobility time compared to control group (water) ([9]; acute PO 10 mg/kg): significantly decreased

Compound: OCCc1cc(-c2cncc(N3CCCNCC3)c2)on1 [Compound 30]
- SmartCube behavioral signature, extent of effect [6]: most prominent effects
- SmartCube behavioral signature, 10 mg/kg compared to 5 mg/kg [6]: marked increase
- Agonism HS-α4β2 Efficacy [7]: 58–81%

Compound: c1cnc2cc3c(cc2n1)[C@@H]1CNC[C@H]3C1 [Compound 1, varenicline]
- Inactivation Efficacy [10]: 83 ± 1.0%
- Agonism LS-α4β2 Efficacy [11]: 34 ± 3.3%
- Agonism HS-α4β2 Efficacy [12]: 106 ± 5.9%

Compound: COCC[C@@H]1C[C@H]1c1cncc(N2C[C@@H]3C[C@H]2CN3)c1 [Compound 26, (1S,4S)-2-[5-[R,2S)-(2-(2-methoxyethyl)cyclopropyl]pyridin-3-yl]-2,5-diazabicyclo[2.2.1]heptane]
- decline in binding affinities at β2-nAChRs [8]: ≥ 6 fold

Source: PMC5097879 (European journal of medicinal chemistry, 2016)
